{"source": "ChEMBL document CHEMBL1201862", "about": "“PubChem BioAssay data set” (2004)", "experiment_in_all_cases": "DTP human tumour cell line panel, 48 h", "key": {"[1]": {"test_system": "SF-539"}, "[2]": {"test_system": "K562"}, "[3]": {"test_system": "LOX IMVI"}, "[4]": {"test_system": "NCI/ADR-RES"}, "[5]": {"test_system": "HT-29"}, "[6]": {"test_system": "EKVX"}, "[7]": {"test_system": "HCC 2998"}, "[8]": {"test_system": "786-0"}, "[9]": {"test_system": "SW-620"}, "[10]": {"test_system": "A549"}, "[11]": {"test_system": "HCT-116"}, "[12]": {"test_system": "M14"}, "[13]": {"test_system": "NCI-H522"}, "[14]": {"test_system": "NCI-H23"}, "[15]": {"test_system": "HOP-92"}, "[16]": {"test_system": "UACC-257"}, "[17]": {"test_system": "HCT-15"}, "[18]": {"test_system": "T47D"}, "[19]": {"test_system": "HL-60"}, "[20]": {"test_system": "SF-268"}}, "note": "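Briefly, cells in 96-well plates were exposed to five compound concentrations for 48 h, and endpoints were estimated by linear interpolation. GI50 = concentration required for 50% inhibition of growth.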 Calls of active or inactive are those of the source. Cut-off read from the data, not from the text of the source: active = GI50 up to about 1.1 µM and inactive = higher."}
{"smiles": "O=C1CNNC(CSc2nc3ccc(I)cc3c(=O)n2Cc2ccccc2)=N1", "values": [{"measurement": "GI50", "setting": "[1]", "result": "22.5 µM (inactive)"}, {"measurement": "GI50", "setting": "[2]", "result": "23.7 µM (inactive)"}, {"measurement": "GI50", "setting": "[3]", "result": "18.2 µM (inactive)"}, {"measurement": "GI50", "setting": "[4]", "result": "26.8 µM (inactive)"}, {"measurement": "GI50", "setting": "[5]", "result": "33.7 µM (inactive)"}, {"measurement": "GI50", "setting": "[6]", "result": "23.6 µM (inactive)"}, {"measurement": "GI50", "setting": "[7]", "result": "27 µM (inactive)"}, {"measurement": "GI50", "setting": "[8]", "result": "29.9 µM (inactive)"}, {"measurement": "GI50", "setting": "[9]", "result": "42.4 µM (inactive)"}, {"measurement": "GI50", "setting": "[10]", "result": "38.5 µM (inactive)"}, {"measurement": "GI50", "setting": "[11]", "result": "20.8 µM (inactive)"}, {"measurement": "GI50", "setting": "[12]", "result": "36.1 µM (inactive)"}, {"measurement": "GI50", "setting": "[13]", "result": "23 µM (inactive)"}, {"measurement": "GI50", "setting": "[14]", "result": "31.6 µM (inactive)"}, {"measurement": "GI50", "setting": "[15]", "result": "22.7 µM (inactive)"}, {"measurement": "GI50", "setting": "[16]", "result": "26.4 µM (inactive)"}, {"measurement": "GI50", "setting": "[17]", "result": 32, "unit": "µM"}, {"measurement": "GI50", "setting": "[18]", "result": "15.5 µM (inactive)"}, {"measurement": "GI50", "setting": "[19]", "result": "2.23 µM (inactive)"}, {"measurement": "GI50", "setting": "[20]", "result": "24.7 µM (inactive)"}]}
{"smiles": "N=c1c2c(=S)n(-c3ccccc3)c(=S)n(-c3ccccc3)c2nc(SCCCN2CCCCC2)n1-c1ccccc1", "values": [{"measurement": "GI50", "setting": "[1]", "result": "2.93 µM (inactive)"}, {"measurement": "GI50", "setting": "[2]", "result": "1.48 µM (inactive)"}, {"measurement": "GI50", "setting": "[3]", "result": "0.91 µM (active)"}, {"measurement": "GI50", "setting": "[4]", "result": "2.91 µM (inactive)"}, {"measurement": "GI50", "setting": "[5]", "result": "2.09 µM (inactive)"}, {"measurement": "GI50", "setting": "[6]", "result": "1.98 µM (inactive)"}, {"measurement": "GI50", "setting": "[7]", "result": "1.49 µM (inactive)"}, {"measurement": "GI50", "setting": "[8]", "result": "1.09 µM (active)"}, {"measurement": "GI50", "setting": "[9]", "result": "2.11 µM (inactive)"}, {"measurement": "GI50", "setting": "[10]", "result": "1.83 µM (inactive)"}, {"measurement": "GI50", "setting": "[11]", "result": "1.73 µM (inactive)"}, {"measurement": "GI50", "setting": "[12]", "result": "1.69 µM (inactive)"}, {"measurement": "GI50", "setting": "[13]", "result": "1.53 µM (inactive)"}, {"measurement": "GI50", "setting": "[14]", "result": "1.98 µM (inactive)"}, {"measurement": "GI50", "setting": "[15]", "result": "1.78 µM (inactive)"}, {"measurement": "GI50", "setting": "[16]", "result": "1.75 µM (inactive)"}, {"measurement": "GI50", "setting": "[17]", "result": 1.55, "unit": "µM"}, {"measurement": "GI50", "setting": "[18]", "result": "2.14 µM (inactive)"}, {"measurement": "GI50", "setting": "[19]", "result": "1.81 µM (inactive)"}, {"measurement": "GI50", "setting": "[20]", "result": "1.99 µM (inactive)"}]}
{"smiles": "S=C1N=C2C(=N1)n1c3c(c4ccccc41)CCCC23", "note": "(stereo not given)", "values": [{"measurement": "GI50", "setting": "[1]", "result": "43.3 µM (inactive)"}, {"measurement": "GI50", "setting": "[2]", "result": "33.1 µM (inactive)"}, {"measurement": "GI50", "setting": "[3]", "result": "14.6 µM (inactive)"}, {"measurement": "GI50", "setting": "[4]", "result": "62.4 µM (inactive)"}, {"measurement": "GI50", "setting": "[5]", "result": "35.1 µM (inactive)"}, {"measurement": "GI50", "setting": "[6]", "result": "> 100 µM (inactive)"}, {"measurement": "GI50", "setting": "[7]", "result": "> 100 µM (inactive)"}, {"measurement": "GI50", "setting": "[8]", "result": "15.5 µM (inactive)"}, {"measurement": "GI50", "setting": "[9]", "result": "32.4 µM (inactive)"}, {"measurement": "GI50", "setting": "[10]", "result": "29.2 µM (inactive)"}, {"measurement": "GI50", "setting": "[11]", "result": "35.2 µM (inactive)"}, {"measurement": "GI50", "setting": "[12]", "result": "> 100 µM (inactive)"}, {"measurement": "GI50", "setting": "[13]", "result": "22.1 µM (inactive)"}, {"measurement": "GI50", "setting": "[14]", "result": "48.3 µM (inactive)"}, {"measurement": "GI50", "setting": "[15]", "result": "> 100 µM (inactive)"}, {"measurement": "GI50", "setting": "[16]", "result": "47.4 µM (inactive)"}, {"measurement": "GI50", "setting": "[17]", "result": 46.3, "unit": "µM"}, {"measurement": "GI50", "setting": "[18]", "result": "26 µM (inactive)"}, {"measurement": "GI50", "setting": "[19]", "result": "55.8 µM (inactive)"}, {"measurement": "GI50", "setting": "[20]", "result": "49 µM (inactive)"}]}
{"smiles": "COc1ccc(/C=C2\\N=C3NC(=O)C(N4CCCCC4)=C(N)N3C2=O)cc1", "values": [{"measurement": "GI50", "setting": "[1]", "result": "> 100 µM (inactive)"}, {"measurement": "GI50", "setting": "[2]", "result": "62.4 µM (inactive)"}, {"measurement": "GI50", "setting": "[3]", "result": "> 100 µM (inactive)"}, {"measurement": "GI50", "setting": "[4]", "result": "> 100 µM (inactive)"}, {"measurement": "GI50", "setting": "[5]", "result": "> 100 µM (inactive)"}, {"measurement": "GI50", "setting": "[6]", "result": "> 100 µM (inactive)"}, {"measurement": "GI50", "setting": "[7]", "result": "> 100 µM (inactive)"}, {"measurement": "GI50", "setting": "[8]", "result": "> 100 µM (inactive)"}, {"measurement": "GI50", "setting": "[9]", "result": "> 100 µM (inactive)"}, {"measurement": "GI50", "setting": "[10]", "result": "> 100 µM (inactive)"}, {"measurement": "GI50", "setting": "[11]", "result": "> 100 µM (inactive)"}, {"measurement": "GI50", "setting": "[12]", "result": "> 100 µM (inactive)"}, {"measurement": "GI50", "setting": "[13]", "result": "> 100 µM (inactive)"}, {"measurement": "GI50", "setting": "[14]", "result": "> 100 µM (inactive)"}, {"measurement": "GI50", "setting": "[15]", "result": "> 100 µM (inactive)"}, {"measurement": "GI50", "setting": "[16]", "result": "> 100 µM (inactive)"}, {"measurement": "GI50", "setting": "[17]", "result": "> 100", "unit": "µM"}, {"measurement": "GI50", "setting": "[18]", "result": "> 100 µM (inactive)"}, {"measurement": "GI50", "setting": "[19]", "result": "25.9 µM (inactive)"}, {"measurement": "GI50", "setting": "[20]", "result": "> 100 µM (inactive)"}]}
{"smiles": "O=c1oc2cc(O)ccc2c(O)c1C(c1ccccc1F)c1c(O)c2ccc(O)cc2oc1=O", "values": [{"measurement": "GI50", "setting": "[1]", "result": "31.7 µM (inactive)"}, {"measurement": "GI50", "setting": "[2]", "result": "25.4 µM (inactive)"}, {"measurement": "GI50", "setting": "[3]", "result": "46 µM (inactive)"}, {"measurement": "GI50", "setting": "[4]", "result": "> 100 µM (inactive)"}, {"measurement": "GI50", "setting": "[5]", "result": "> 100 µM (inactive)"}, {"measurement": "GI50", "setting": "[6]", "result": "> 100 µM (inactive)"}, {"measurement": "GI50", "setting": "[7]", "result": "21.2 µM (inactive)"}, {"measurement": "GI50", "setting": "[8]", "result": "> 100 µM (inactive)"}, {"measurement": "GI50", "setting": "[9]", "result": "38.4 µM (inactive)"}, {"measurement": "GI50", "setting": "[10]", "result": "> 100 µM (inactive)"}, {"measurement": "GI50", "setting": "[11]", "result": "48.4 µM (inactive)"}, {"measurement": "GI50", "setting": "[12]", "result": "> 100 µM (inactive)"}, {"measurement": "GI50", "setting": "[13]", "result": "> 100 µM (inactive)"}, {"measurement": "GI50", "setting": "[14]", "result": "> 100 µM (inactive)"}, {"measurement": "GI50", "setting": "[15]", "result": "65.2 µM (inactive)"}, {"measurement": "GI50", "setting": "[16]", "result": "> 100 µM (inactive)"}, {"measurement": "GI50", "setting": "[17]", "result": 31, "unit": "µM"}, {"measurement": "GI50", "setting": "[18]", "result": "> 100 µM (inactive)"}, {"measurement": "GI50", "setting": "[19]", "result": "17.9 µM (inactive)"}, {"measurement": "GI50", "setting": "[20]", "result": "78.2 µM (inactive)"}]}
{"smiles": "COC(=O)C(Cc1ccccc1)NP(=O)(O)OCC1OC(n2ccc(N)nc2=O)C(O)C1O", "note": "(stereo not given)", "values": [{"measurement": "GI50", "setting": "[1]", "result": "> 100 µM (inactive)"}, {"measurement": "GI50", "setting": "[2]", "result": "> 100 µM (inactive)"}, {"measurement": "GI50", "setting": "[3]", "result": "> 100 µM (inactive)"}, {"measurement": "GI50", "setting": "[4]", "result": "> 100 µM (inactive)"}, {"measurement": "GI50", "setting": "[5]", "result": "> 100 µM (inactive)"}, {"measurement": "GI50", "setting": "[6]", "result": "> 100 µM (inactive)"}, {"measurement": "GI50", "setting": "[7]", "result": "> 100 µM (inactive)"}, {"measurement": "GI50", "setting": "[8]", "result": "> 100 µM (inactive)"}, {"measurement": "GI50", "setting": "[9]", "result": "> 100 µM (inactive)"}, {"measurement": "GI50", "setting": "[10]", "result": "> 100 µM (inactive)"}, {"measurement": "GI50", "setting": "[11]", "result": "> 100 µM (inactive)"}, {"measurement": "GI50", "setting": "[12]", "result": "> 100 µM (inactive)"}, {"measurement": "GI50", "setting": "[13]", "result": "> 100 µM (inactive)"}, {"measurement": "GI50", "setting": "[14]", "result": "> 100 µM (inactive)"}, {"measurement": "GI50", "setting": "[15]", "result": "> 100 µM (inactive)"}, {"measurement": "GI50", "setting": "[16]", "result": "> 100 µM (inactive)"}, {"measurement": "GI50", "setting": "[17]", "result": "> 100", "unit": "µM"}, {"measurement": "GI50", "setting": "[18]", "result": "> 100 µM (inactive)"}, {"measurement": "GI50", "setting": "[19]", "result": "> 100 µM (inactive)"}, {"measurement": "GI50", "setting": "[20]", "result": "> 100 µM (inactive)"}]}
